From patent EP4095134A1, “POLYCYCLIC COMPOUNDS FOR THE TREATMENT OF NEUROLOGICAL INDICATIONS” (UCL Business Ltd, priority 2021, dated 2022)

Biological target: T1, P2Y1 receptor (Homo sapiens, UniProt P47900)
T1 construct: expressed in transfected cells
Assay: P2Y1 IP1 accumulation HTRF assay, antagonism of agonist MRS2365 in stably transfected cells
Type: cell-based
Conditions: for IC50: 5nM MRS2365, values rounded to nearest whole number
Description: IC50 values were determined using a cell based assay in stably transfected cells overexpressing the P2Y1 receptor. The assay system is a […] (HTRF) assay measuring accumulation of the intracellular messenger inositol monophosphate (IP1), generated intracellularly following activation of P2Y1. Activity of test compounds was generated by measuring antagonism of the increase in IP1 generated by addition of a selective P2Y1 agonist, MRS2365.
P2Y1 overexpressing cells were maintained in T175 flasks. The day before the assay, these cells were split and 20µl cell suspension transferred to each well of white 384-well assay plates at a cell density of 0.5x10^6 cells/mL. Plates were pulse centrifuged, then incubated overnight at 37°C / 5% CO2 prior to assay.
On day of assay, medium was removed from cells and replaced with stimulation buffer. Compounds were prepared in 100% DMSO for addition to cells using the Tecan D300e digital dispenser; compounds were prepared in cassette heads and added directly to wells in the required concentration range, to give a 10-point concentration response curve from 10µM with semi-log dilutions and a final DMSO concentration of 0.1%. Positive control antagonist curves with standard compounds were included on each plate. Plates were incubated with antagonists for 1 hour prior to addition of 5nM of the agonist MRS2365, dispensed using a Bravo liquid handler. Following agonist addition, plates were incubated for 60 minutes prior to assay. Both incubations were carried out at 37°C / 5% CO2.
For the assay, IP1 accumulation was quantified using the IPOne kit according to manufacturer's instructions. In short, a standard curve was prepared for IP 1 quantification, and cells lysed using kit lysis buffer. Assay reagents were added to the lysates, and incubated for 1 hour at room temperature without spinning or shaking. Plates were analysed on a BMG Pherastar plate reader, and IP1 signal generated in cells interpolated from the standard curve.
For all reported results, N is greater than or equal to 4. An individual N refers to one assay run with a single weighing of compound. A minimum of two assay runs were performed for each of two independent weighings of compound. Results (racemic)

T1 sequence (P47900 whole entry): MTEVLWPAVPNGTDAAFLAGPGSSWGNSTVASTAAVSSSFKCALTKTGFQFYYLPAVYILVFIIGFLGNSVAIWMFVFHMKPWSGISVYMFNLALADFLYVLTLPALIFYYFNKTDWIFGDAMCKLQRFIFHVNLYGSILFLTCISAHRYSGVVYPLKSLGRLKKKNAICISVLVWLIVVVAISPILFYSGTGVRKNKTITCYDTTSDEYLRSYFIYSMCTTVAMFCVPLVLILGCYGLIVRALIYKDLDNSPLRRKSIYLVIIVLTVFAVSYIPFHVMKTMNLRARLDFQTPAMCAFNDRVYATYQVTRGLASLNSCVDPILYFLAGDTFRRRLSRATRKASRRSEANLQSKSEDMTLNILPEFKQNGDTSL

| IC50 (racemic, N >= 4) [nM] | SMILES | further results |
| --- | --- | --- |
| 844 | Cc1ccc(NC(=O)NC2CC3(CCC3)C2)c(Oc2ccc(F)cc2C2(C(F)(F)F)CCO2)n1 (racemic) [S63, 1-(2-(4-fluoro-2-(2-(trifluoromethyl)oxetan-2-yl)phenoxy)-6-methylpyridin-3-yl)-3-(spiro[3.3]heptan-2-yl)urea] |  |
| 926 | Cc1ncc(NC(=O)Nc2ccc(Cl)c(F)c2)c(Oc2ccccc2C2(C(F)(F)F)CCO2)n1 (racemic) [S64, 1-(4-chloro-3-fluorophenyl)-3-(2-methyl-4-(2-(2-(trifluoromethyl)oxetan-2-yl)phenoxy)pyrimidin-5-yl)urea] |  |
| 983 | O=C(Nc1ccc(F)cc1F)Nc1cccnc1Oc1ccccc1C1(C(F)(F)F)CCO1 (racemic) [S65, 1-(2,4-difluorophenyl)-3-(2-(2-(2-(trifluoromethyl)oxetan-2-yl)phenoxy)pyridin-3-yl)urea] |  |
| 1020 | Cc1ccc(NC(=O)Nc2ccc(C#N)cc2)c(Oc2ccc(F)cc2C2(C(F)(F)F)CCO2)n1 (racemic) [S66, 1-(4-cyanophenyl)-3-(2-(4-fluoro-2-(2-(trifluoromethyl)oxetan-2-yl)phenoxy)-6-methylpyridin-3-yl)urea] |  |
| 1060 | COc1cc(NC(=O)Nc2ccc(C)nc2Oc2ccccc2C2(C(F)(F)F)CCO2)ccc1F (racemic) [S67, 1-(4-fluoro-3-methoxyphenyl)-3-(6-methyl-2-(2-(2-(trifluoromethyl)oxetan-2-yl)phenoxy)pyridin-3-yl)urea] |  |
| 1330 | COc1ncc(NC(=O)Nc2cccnc2Oc2ccc(F)cc2C2(C(F)(F)F)CCO2)cc1F (racemic) [S68, 1-(2-(4-fluoro-2-(2-(trifluoromethyl)oxetan-2-yl)phenoxy)pyridin-3-yl)-3-(5-fluoro-6-methoxypyridin-3-yl)urea] |  |
| 1410 | Cc1ncc(NC(=O)Nc2ccc(Cl)cc2)c(Oc2ccccc2C2(C(F)(F)F)CCO2)n1 (racemic) [S69, 1-(4-chlorophenyl)-3-(2-methyl-4-(2-(2-(trifluoromethyl)oxetan-2-yl)phenoxy)pyrimidin-5-yl)urea] |  |
| 1450 | O=C(Nc1ccc2c(c1)OCO2)Nc1cccnc1Oc1ccccc1C1(C(F)(F)F)CCO1 (racemic) [S70, 1-(benzo[d][1,3]dioxol-5-yl)-3-(2-(2-(2-(trifluoromethyl)oxetan-2-yl)phenoxy)pyridin-3-yl)urea] |  |
| 1480 | O=C(Nc1ccc(C(F)(F)F)nc1)Nc1cccnc1Oc1ccccc1C1(C(F)(F)F)CCO1 (racemic) [S71, 1-(2-(2-(2-(trifluoromethyl)oxetan-2-yl)phenoxy)pyridin-3-yl)-3-(6-(trifluoromethyl)pyridin-3-yl)urea] |  |
| 1490 | N#Cc1ccc(NC(=O)Nc2cccnc2Oc2ccccc2C2(C(F)(F)F)CCO2)c(F)c1 (racemic) [S72, 1-(4-cyano-2-fluorophenyl)-3-(2-(2-(2-(trifluoromethyl)oxetan-2-yl)phenoxy)pyridin-3-yl)urea] |  |
| 1690 | FC(F)(F)c1nnc(Nc2cccnc2Oc2ccccc2C2(C(F)(F)F)CCO2)s1 (racemic) [S73] |  |
| 2140 | O=C(Nc1cccnc1Oc1ccccc1C1(C(F)(F)F)CCO1)NC1CC2(CC2)C1 (racemic) [S74] |  |
| 2650 | COc1ccc(NC(=O)Nc2ccc(C)nc2Oc2ccc(F)cc2C2(C(F)(F)F)CCO2)cn1 (racemic) [S75, 1-(2-(4-fluoro-2-(2-(trifluoromethyl)oxetan-2-yl)phenoxy)-6-methylpyridin-3-yl)-3-(6-methoxypyridin-3-yl)urea] |  |
| 3140 | COc1cc(NC(=O)Nc2ccc(C)nc2Oc2ccc(F)cc2C2(C(F)(F)F)CCO2)ccn1 (racemic) [S77, 1-(2-(4-fluoro-2-(2-(trifluoromethyl)oxetan-2-yl)phenoxy)-6-methylpyridin-3-yl)-3-(2-methoxypyridin-4-yl)urea] |  |
| 3160 | Cn1c(C(F)(F)F)nc2ccc(NC(=O)Nc3cccnc3Oc3ccccc3C3(C(F)(F)F)CCO3)cc21 (racemic) [S78, 1-(1-methyl-2-(trifluoromethyl)-1H-benzo[d]imidazol-6-yl)-3-(2-(2-(2-(trifluoromethyl)oxetan-2-yl)phenoxy)pyridin-3-yl)urea] |  |
| 3170 | N#Cc1ccc(NC(=O)Nc2cccnc2Oc2ccccc2C2(C(F)(F)F)CCO2)cc1 (racemic) [S79, 1-(4-cyanophenyl)-3-(2-(2-(2-(trifluoromethyl)oxetan-2-yl)phenoxy)pyridin-3-yl)urea] |  |
| 3280 | O=C(Nc1ccccc1)Nc1cccnc1Oc1ccccc1C1(C(F)F)CCO1 (racemic) [S80] |  |
| 4710 | CN1C(=O)CC1(c1ccccc1Oc1ncccc1NC(=O)Nc1ccc(OC(F)(F)F)cc1)C(F)F (racemic) [S83] |  |
| 4940 | O=C(Nc1nc2ccccc2[nH]1)Nc1cccnc1Oc1ccccc1C1(C(F)(F)F)CCO1 (racemic) [S84, 1-(1H-benzo[d]imidazol-2-yl)-3-(2-(2-(2-(trifluoromethyl)oxetan-2-yl)phenoxy)pyridin-3-yl)urea] |  |

| IC50 (racemic, N >= 4) [nM] | SMILES | further results |
| --- | --- | --- |
| 5580 | Cn1c(C(F)F)nc2ccc(NC(=O)Nc3cccnc3Oc3ccccc3C3(C(F)(F)F)CCO3)cc21 (racemic) [S85, 1-(2-(difluoromethyl)-1-methyl-1H-benzo[d]imidazol-6-yl)-3-(2-(2-(2-(trifluoromethyl)oxetan-2-yl)phenoxy)pyridin-3-yl)urea] |  |
| 6050 | Cc1ccc(NC(=O)NC2CC3(C2)CC(F)(F)C3)c(Oc2ccc(F)cc2C2(C(F)(F)F)CCO2)n1 (racemic) [S86, 1-(6,6-difluorospiro[3.3]heptan-2-yl)-3-(2-(4-fluoro-2-(2-(trifluoromethyl)oxetan-2-yl)phenoxy)-6-methylpyridin-3-yl)urea] |  |
| 4590 | O=C(Nc1ccc(OC(F)(F)F)cc1)Nc1cccnc1Oc1ccccc1C1COC1 (racemic) [S87] |  |
| 1160 | Cc1cccc(Oc2ncccc2NC(=O)Nc2ccc(OC(F)(F)F)cc2)c1C1COC1 (racemic) [S88] |  |
| 71 | CN1CCC1(c1ccccc1Oc1ncccc1NC(=O)Nc1ccc(OC(F)(F)F)cc1)C(F)(F)F (racemic) [S89] |  |
| 322 | O=C(Nc1ccc(OC(F)(F)F)cc1)Nc1cccnc1Oc1cccc(C2(C(F)(F)F)CCO2)c1 (racemic) [S90, 1-(4-(trifluoromethoxy)phenyl)-3-(2-(3-(2-(trifluoromethyl)oxetan-2-yl)phenoxy)pyridin-3-yl)urea] |  |
| 1370 | Cc1c(Oc2ncccc2NC(=O)Nc2ccc(OC(F)(F)F)cc2)cccc1C1COC1 (racemic) [S91] |  |
| 2790 | O=C(Nc1ccc(OC(F)(F)F)cc1)Nc1cccnc1Oc1cccc(C2COC2)c1 (racemic) [S92] |  |
| 889 | Cc1c(Oc2ncccc2NC(=O)Nc2ccc(OC(F)(F)F)cc2)cccc1N1CCC1 (racemic) [S94] |  |
| 36 | CC1(c2ccccc2Oc2ncccc2NC(=O)Nc2ccc(OC(F)(F)F)cc2)CCC1 (racemic) [S95] |  |
|  | COc1ccc2nc(Nc3cccnc3Oc3ccc(F)cc3C3(C(F)(F)F)CCO3)[nH]c2n1 (racemic) [S96] | inhibition at 10 µM (at maximum tested concentration of 10000 nM, full dose-response curve not generated): 56% |
| 1010 | Fc1ccc(Oc2ncccc2Nc2nc3ccc(C(F)(F)F)cc3[nH]2)c(C2(C(F)(F)F)CCO2)c1 (racemic) [S97] |  |
|  | Cc1ccc(NC(=O)Nc2ccc(OC(F)(F)F)cc2F)c(Oc2ccccc2[C@]2(C(F)(F)F)CCO2)n1 (racemic) [S104] | IC50 (single enantiomer): 68 nM |
|  | CN1CC[C@]1(c1ccccc1Oc1ncccc1NC(=O)Nc1ccc(OC(F)(F)F)cc1)C(F)(F)F (racemic) [S105] | IC50 (single enantiomer): 77 nM |
|  | Cc1ccc(NC(=O)Nc2ccc(Cl)cc2F)c(Oc2ccccc2[C@]2(C(F)(F)F)CCO2)n1 (racemic) [S109] | IC50 (single enantiomer): 126 nM |
| 45 | O=C(Nc1ccc(OC(F)(F)F)cc1)Nc1cccnc1Oc1ccccc1C1(C(F)(F)F)CCN1CC1CC1 (racemic) [S116] |  |
| 39 | CC(C)(C)CN1CCC1(c1ccccc1Oc1ncccc1NC(=O)Nc1ccc(OC(F)(F)F)cc1)C(F)(F)F (racemic) [S117] |  |
| 121 | O=C(Nc1ccc(OC(F)(F)F)cc1)Nc1cccnc1Oc1ccccc1C1(C(F)F)CCN1CCF (racemic) [S118] |  |
| 1240 | Cc1cc2nc(Nc3cccnc3Oc3ccc(F)cc3C3(C(F)(F)F)CCO3)[nH]c2cc1C (racemic) [S120] |  |

| SMILES | IC50 (racemic, N >= 4) [nM] | further results |
| --- | --- | --- |
| Cc1ccc(Nc2nnc(C(F)F)s2)c(Oc2ccc(F)cc2C2(C(F)(F)F)CCO2)n1 (racemic) [S76] | 3050 |  |
| Cc1ncc(NC(=O)Nc2ccc(OC3CC(F)(F)C3)cc2)c(Oc2ccccc2C2(C(F)(F)F)CCO2)n1 (racemic) [S81, 1-(4-(3,3-difluorocyclobutoxy)phenyl)-3-(2-methyl-4-(2-(2-(trifluoromethyl)oxetan-2-yl)phenoxy)pyrimidin-5-yl)urea] | 3530 |  |
| FC(F)c1nnc(Nc2cccnc2Oc2ccccc2C2(C(F)(F)F)CCO2)s1 (racemic) [S82] | 4530 |  |
| COc1ccc2nc(Nc3cccnc3Oc3ccc(F)cc3C3(C(F)(F)F)CCO3)[nH]c2n1 (racemic) [S119] | 721 |  |
